{"source": "patent US6949533B2", "about": "“6,7-Oxygenated steroids and uses related thereto” (Inflazyme Pharmaceuticals Ltd., priority 1996, dated 2005)", "key": {"mouse mast cells (MC/9)": {"tested_on": "mouse mast cells (MC/9)", "assay": "antigen-induced release of hexosaminidase from MC/9 cells", "format": "cell-based", "conditions": "Mus musculus, MC9, 25 μM compound, read-out: Percentage Inhibition (mean) MC/9 cells", "experimental": "The anti-allergic effects of various polyhydroxylated steroids of the present invention were evaluated by measuring their effect on antigen-induced secretion of hexosaminidase from a passively sensitized rat mast cell line (RBL-2H3) and a murine mast cell line (MC/9). The ability of agents to inhibit the release of mast cell granule contents, e.g., histamine and hexosaminidase, is indicative of anti-allergy and/or anti-asthma activity.\nHexosaminidase is released from the mast cell granule along with histamine and other mediators during antigen challenge. RBL-2H3 and MC/9 cells were grown in culture and passively sensitized to dinitrophenol (DNP) using anti-human-DNP (IgE). Cells were incubated with each compound (25 μM) for 1 hour at 37° C. and then stimulated with 0.1 mg/ml DNP-HSA (antigen) for 15 min. Aliquots of the supernatant were removed and used to measure the amount of hexosaminidase released during challenge with the antigen. The amount of hexosaminidase present in the supernatant was determined calorimetrically by monitoring the enzymatic metabolism of p-nitrophenyl-N-acetyl-β-D-glucosaminide (p-NAG) over a period of 1 hour at 410 nm. The effect of each compound was determined as a percentage of the antigen-induced response (minus background release) obtained in the presence of DMSO alone, as set forth in Tables 2 and 3. These values were used to determine the degrees of inhibition of antigen-induced hexosaminidase release from the cells."}, "[1]": {"tested_on": "Ascaris suum sensitized sheep", "assay": "allergic sheep model of asthma", "format": "in vivo", "experimental": "The model is conscious, where the animals are breathing spontaneously, allowing measurement of airways bronchoconstriction and acute airway hyperresponsiveness.\nSheep which were naturally sensitized to Ascaris suum (30-40 Kg) were intubated with an endotracheal tube and a balloon catheter, positioned in the lower esophagus. Pleural pressure was estimated with the esophageal catheter, while later pressure was measured with a side-hole catheter advanced through and positioned distal to the tip of the endotracheal tube. Transpulmonary pressure differences between the trachea and pleural pressures were measured with a differential pressure transducer catheter system.\nThe proximal end of the endotracheal tube was connected to a Fleisch pneumotachograph in order to measure flow changes. Pulmonary resistance (RL) was calculated from pressure measurements of transpulmonary pressure, respiratory volume (from digital integration of the flow signal) and flow by the mid-flow technique. SRL was calculated as RL Vtg (Vtg=thoracic gas volume).\nAerosols generated using a disposable nebulizer, were directed into a T-piece connected to a Harvard respirator and the tracheal tube in series. The aerosol delivery was controlled using a dosimeter system, consisting of a solenoid valve and compressed air (20 psi) activated at the start of each inspiratory cycle. Aerosols were delivered in tidal volumes of 500 ml at […].\nSelected compounds from the invention were dissolved as a stock solution in DMSO and diluted in saline. Animals received either, 400 μg/Kg of compound 30 min prior to challenge and 4 hours after challenge, or 400 μg/Kg of compound for 4 days with the last dose 2 hours before challenge. Ascaris suum extract was diluted in phosphate buffered saline to a concentration of 82000 protein nitrogen units/ml and delivered by aerosol over 20 min. Carbachol was dissolved in PBS to concentrations of 0.25, 0.5 1.0, 2.0, 4.0% wt/vol. Each animal served as its own control throughout the study.\nSpecific lung resistance (SRL) was measured every 60 min for 8 hours after antigen challenge. Airways hyperresponsiveness to carbachol was measured 24 hours after the initial challenge."}, "rabbit platelets": {"tested_on": "rabbit platelets", "assay": "PAF-induced aggregation of rabbit platelets", "format": "cell-based", "conditions": "Oryctolagus cuniculus, Platelet; 80 μM compound, 5 min preincubation; PAF-stimulated rabbit platelets (title: 0.1 nM PAF); read-out: % Inhibition at 80 μM", "text": "Within the present invention, it was discovered that the polyhydroxylated steroids as well as intermediates described in previous sections inhibited the aggregation of platelets caused by platelet activating factor (PAF). PAF is a local mediator of thrombosis and prevention of the formation of blood clots has direct implication in the treatment of thrombosis and associated cardiovascular diseases. The assay system used to evaluate the ability of compounds to inhibit the aggregation of platelets in response to exogenous stimuli is indicative of anti-thrombotic or thrombolytic activity.\nPlatelets were isolated from rabbit blood and prepared at a density of 2.4×10^8 cells/ml in Tyrodes buffer (pH 7.2) containing Ca^2+. Platelets were incubated with each compound for 5 min at 37° C. prior to stimulation. Platelets were stimulated with 1 nM platelet activating factor (PAF; EC75) in the presence of each of the compounds and aggregation was monitored for 5 min. Compounds were solubilized in dimethylsulfoxide (DMSO) and aggregation was measured as a percentage of the response to 1 nM PAF obtained in the presence of the appropriate concentration of DMSO. The degree of inhibition caused by each sample was calculated using the control response in the presence of DMSO equal to 100%."}, "guinea pig ileum": {"tested_on": "guinea pig ileum", "assay": "antigen-induced contraction of ileum from sensitized guinea pigs", "conditions": "Cavia porcellus, read-out: Percentage Inhibition, 30 μM compound, n = 3-4", "experimental": "The ability of compounds to inhibit allergen-induced contraction of ileum from sensitized animals is indicative of antiallergic activity. Sensitized guinea pig ileum is particularly useful in measuring the immediate allergic response.\nThe guinea pig ileum has been used to evaluate the ability of compounds to inhibit allergan-induced histamine and mediator release causing smooth muscle contraction. Guinea pigs were sensitized by an intraperitoneal injection of 100 mg ovalbumin and an intramuscular injection of 50 mg ovalbumin on day 0, followed by a second intramuscular injection of 50 mg ovalbumin on day 1. […] Segments of ileum were prepared and suspended, with muscle contractions being measured in the longitudinal plane, in Tyrode's buffer at 37° C. and aerated with 5% CO2 in O2. Tissues were suspended under a resting tension of 2 grams and isometric contractions were measured using force-displacement transducers coupled to a polygraph. Tissues were stimulated with 3 μM histamine 3 times to ensure reproducible contractions were obtained. Tissues were then incubated with each compound (30 μM) or 0.15% dimethylsulphoxide (DMSO) as a control, for 20 min, after which time the tissues were challenged with 100 μg/ml ovalbumin. The magnitude of the contraction induced by OA in the presence of each compound was expressed as a percentage of the contraction obtained to 3 μM histamine. The protective effects of the various compounds on OA-induced contraction of guinea pig ileum from sensitized animals are summarized in Table 4."}, "[2]": {"conditions": "400 μg/kg/day for 4 days, inhalation, Baseline"}}, "data": [{"molecule": "C/C=C1/CCC2C3C(CC[C@]12C)[C@@]1(C)CC[C@@H](O)CC1[C@@H](O)[C@@H]3O", "note": "(stereo partly drawn) [Compound 330, 3α,6α,7β-trihydroxy-17(20)-pregnene]", "values": [{"measurement": "inhibition at 25 µM", "setting": "mouse mast cells (MC/9)", "value": 49, "unit": "%"}, {"measurement": "PC400 Hyperresponsiveness to carbachol", "setting": "[1]; 400 μg/kg inhalation 30 min prior to and 4 hours after challenge, Baseline", "value": "26.01 ± 3.06", "unit": "Breath Units"}, {"measurement": "PC400 Hyperresponsiveness to carbachol", "setting": "[1]; 400 μg/kg inhalation 30 min prior to and 4 hours after challenge, Post-Challenge (24 hours)", "value": "22.79 ± 6.11", "unit": "Breath Units"}, {"measurement": "Specific Lung Resistance", "setting": "[1]; 400 μg/kg inhalation 30 min prior to and 4 hrs after challenge, 1 hr", "value": "117 ± 11", "unit": "% Baseline"}, {"measurement": "Specific Lung Resistance", "setting": "[1]; 400 μg/kg inhalation 30 min prior to and 4 hrs after challenge, 2 hr", "value": "49 ± 11", "unit": "% Baseline"}, {"measurement": "Specific Lung Resistance", "setting": "[1]; 400 μg/kg inhalation 30 min prior to and 4 hrs after challenge, 3 hr", "value": "32 ± 6", "unit": "% Baseline"}, {"measurement": "Specific Lung Resistance", "setting": "[1]; 400 μg/kg inhalation 30 min prior to and 4 hrs after challenge, 4 hr", "value": "20 ± 6", "unit": "% Baseline"}, {"measurement": "Specific Lung Resistance", "setting": "[1]; 400 μg/kg inhalation 30 min prior to and 4 hrs after challenge, 5 hr", "value": "14 ± 4", "unit": "% Baseline"}, {"measurement": "Specific Lung Resistance", "setting": "[1]; 400 μg/kg inhalation 30 min prior to and 4 hrs after challenge, 6 hr", "value": "14 ± 5", "unit": "% Baseline"}, {"measurement": "Specific Lung Resistance", "setting": "[1]; 400 μg/kg inhalation 30 min prior to and 4 hrs after challenge, 6.5 hr", "value": "18 ± 6", "unit": "% Baseline"}, {"measurement": "Specific Lung Resistance", "setting": "[1]; 400 μg/kg inhalation 30 min prior to and 4 hrs after challenge, 7 hr", "value": "10 ± 2", "unit": "% Baseline"}, {"measurement": "Specific Lung Resistance", "setting": "[1]; 400 μg/kg inhalation 30 min prior to and 4 hrs after challenge, 7.5 hr", "value": "17 ± 8", "unit": "% Baseline"}, {"measurement": "Specific Lung Resistance", "setting": "[1]; 400 μg/kg inhalation 30 min prior to and 4 hrs after challenge, 8 hr", "value": "5 ± 3", "unit": "% Baseline"}, {"measurement": "Specific Lung Resistance", "setting": "[1]; 400 μg/kg inhalation 30 min prior to and 4 hrs after challenge, Baseline", "value": "2 ± 5", "unit": "% Baseline"}, {"measurement": "Specific Lung Resistance", "setting": "[1]; 400 μg/kg inhalation 30 min prior to and 4 hrs after challenge, Challenge (0)", "value": "268 ± 35", "unit": "% Baseline"}, {"measurement": "Specific Lung Resistance", "setting": "[1]; 400 μg/kg inhalation 30 min prior to and 4 hrs after challenge, −0.5 hr", "value": "0 ± 4", "unit": "% Baseline"}, {"measurement": "Specific Lung Resistance", "setting": "[1]; 400 μg/kg/day for 4 days, inhalation, 1 hr", "value": "34.00 ± 10.75", "unit": "% Baseline"}, {"measurement": "Specific Lung Resistance", "setting": "[1]; 400 μg/kg/day for 4 days, inhalation, 2 hr", "value": "11.50 ± 6.18", "unit": "% Baseline"}, {"measurement": "Specific Lung Resistance", "setting": "[1]; 400 μg/kg/day for 4 days, inhalation, 3 hr", "value": "−15.00 ± 37.67", "unit": "% Baseline"}, {"measurement": "Specific Lung Resistance", "setting": "[1]; 400 μg/kg/day for 4 days, inhalation, 4 hr", "value": "4.00 ± 1.78", "unit": "% Baseline"}, {"measurement": "Specific Lung Resistance", "setting": "[1]; 400 μg/kg/day for 4 days, inhalation, 5 hr", "value": "−4.50 ± 4.17", "unit": "% Baseline"}, {"measurement": "Specific Lung Resistance", "setting": "[1]; 400 μg/kg/day for 4 days, inhalation, 6 hr", "value": "7.75 ± 9.75", "unit": "% Baseline"}, {"measurement": "Specific Lung Resistance", "setting": "[1]; 400 μg/kg/day for 4 days, inhalation, 6.5 hr", "value": "5.50 ± 4.87", "unit": "% Baseline"}, {"measurement": "Specific Lung Resistance", "setting": "[1]; 400 μg/kg/day for 4 days, inhalation, 7 hr", "value": "10.75 ± 4.91", "unit": "% Baseline"}, {"measurement": "Specific Lung Resistance", "setting": "[1]; 400 μg/kg/day for 4 days, inhalation, 7.5 hr", "value": "4.00 ± 2.35", "unit": "% Baseline"}, {"measurement": "Specific Lung Resistance", "setting": "[1]; 400 μg/kg/day for 4 days, inhalation, 8 hr", "value": "3.25 ± 4.73", "unit": "% Baseline"}, {"measurement": "PC400 Hyperresponsiveness to carbachol", "setting": "[1]; [2]", "value": "21.26 ± 2.75", "unit": "Breath Units"}, {"measurement": "Specific Lung Resistance", "setting": "[1]; [2]", "value": "5.25 ± 4.50", "unit": "% Baseline"}, {"measurement": "Specific Lung Resistance", "setting": "[1]; 400 μg/kg/day for 4 days, inhalation, Challenge (0)", "value": "126.00 ± 19.11", "unit": "% Baseline"}, {"measurement": "PC400 Hyperresponsiveness to carbachol", "setting": "[1]; 400 μg/kg/day for 4 days, inhalation, Post-Challenge (24 hours)", "value": "21.21 ± 3.10", "unit": "Breath Units"}, {"measurement": "Specific Lung Resistance", "setting": "[1]; 400 μg/kg/day for 4 days, inhalation, −0.5 hr", "value": "−3.75 ± 4.29", "unit": "% Baseline"}, {"measurement": "inhibition at 80 µM", "setting": "rabbit platelets", "value": 20.9, "unit": "%"}, {"measurement": "inhibition at 30 µM", "setting": "guinea pig ileum", "value": 70, "unit": "%"}]}]}
